Experiments:
[1] = tested on: advanced solid tumors and relapsed/refractory (R/R) B-cell lymphomas; assay: Anticancer activity in phase I patients (RECIST 1.1 / Lugano, Kaplan-Meier); type: in vivo, human; details: for No. of patients with best response SD: evaluable patients n = 24
Experimental: Tumor response assessments using CT imaging were performed every two cycles. RECIST 1.1 [11] or the Lugano Response Criteria for Lymphoma was used to determine tumor response and disease progression. For B-cell NHL patients with PET-CT at baseline, PET-CT was repeated after the sixth cycle to confirm complete response or disease progression. Patient archival specimens and blood samples were submitted for exploratory molecular analyses. Descriptive statistics were used for demographic, safety, and efficacy data. Categorical data were summarized using frequency counts and percentages. Time-to-event variables were analyzed by Kaplan-Meier methods. Weighted trajectory analysis for health outcomes used the Chauhan methodology.

[2] = tested on: cultured human cancer cells; design: method as in PMID 33093447; details: wide variety of cultured human cancer cells; cited from earlier work
[3] = tested on: cell line derived xenografts from breast carcinomas; design: method as in PMID 33398478; details: mice-bearing established human tumor xenografts; cited from earlier work
[4] = design: method as in Pacylex, data on file; details: preclinical models; ref Pacylex, data on file; cited from earlier work
clinical = details: human, in vivo; for AUC(0-t): AUC0 − 24 (h*ng/mL) (mean, SD); for Cmax: Cmax (ng/ml) (mean, SD)
Experimental: Peripheral blood samples were collected over six time points in the first 8 h of Cycle 1, Day 1 (C1D1), and again on C1D15. Pre-treatment Day 1 levels were obtained with every subsequent cycle.

[5] = MTD cohort 210 mg daily (n = 7) vs lower dose cohorts (n = 17)

## Cc1c(NS(=O)(=O)c2c(Cl)cc(-c3ccnc(N4CCNCC4)c3)cc2Cl)c(CC(C)C)nn1C [zelenirstat]
[1]; [5]
  Overall Survival (Kaplan-Meier): statistically significantly longer overall survival
  Progression-Free Survival (Kaplan-Meier): statistically significantly longer PFS
[1]; all dose cohorts
  objective responses: No objective responses
[1]; dose level 2: 40 mg, pancreatic adenocarcinoma
  No. of patients with best response SD: 1
[1]; dose level 5: 140 mg, CRC
  No. of patients with best response SD: 1
[1]; dose level 6: 210 mg, CRC (2), ovarian (2), appendiceal carcinoma
  No. of patients with best response SD: 5
[1]; dose level 7: 280 mg, after DLT modified to 210 mg daily, bladder
  No. of patients with best response SD: 1
[1]; eight of 29 patients, all dose cohorts
  Stable disease as best response, patients: 28%
[1]; one patient, metastatic colon adenocarcinoma, 210 mg
  reduction in serum carcinoembryonic antigen (CEA) level: 48%
[1]; one patient, metastatic colon adenocarcinoma, 210 mg, SD, continuing
  duration on zelenirstat: ≥ 420 days
[1]; one patient, metastatic colon adenocarcinoma, 210 mg, ongoing
  reduction in sum of longest dimensions of the target lesions: 13%
[1]; one patient, refractory ovarian cancer, 210 mg
  reduction in cancer antigen 125 (CA125): 20%
[2]
  effect on cultured human cancer cells: cytotoxic or cytostatic
[3]
  xenograft tumor response: tumor growth inhibition
[4]
  oral bioavailability: high oral bioavailability
clinical; half-life values across the dose cohorts
  half-life: 7.67 to 12 h
clinical; maximum Tmax value in patients taking PPI
  Tmax: ~8 h
clinical; mean terminal half-life across the dose cohorts
  half-life: 6.7 to 9.5 h
clinical; median Tmax range in patients taking proton pump inhibitors (PPI)
  Tmax: 1 to 6 h
clinical; po, 20 mg
  AUC(0-t): 1580 ng·h/mL
  Cmax: 359 ng/mL
clinical; po, 20 mg, Tmax (h) (median, range)
  Tmax: 2 h
clinical; po, 20 mg, t1/2 (h) (mean, SD)
  half-life: 6.7 h
clinical; po, 40 mg
  AUC(0-t): 4820 ng·h/mL
  Cmax: 848 ng/mL
clinical; po, 40 mg, t1/2 (h) (mean, SD)
  half-life: 9.2 h
clinical; po, 70 mg
  AUC(0-t): 5650 ng·h/mL
  Cmax: 665 ng/mL
clinical; po, 70 mg, Tmax (h) (median, range)
  Tmax: 3.9 h
clinical; po, 70 mg, t1/2 (h) (mean, SD)
  half-life: 9.5 h
clinical; po, 100 mg
  AUC(0-t): 24700 ng·h/mL
  Cmax: 2300 ng/mL
clinical; po, 100 mg, Tmax (h) (median, range)
  Tmax: 4 h
clinical; po, 100 mg, t1/2 (h) (mean, SD)
  half-life: 12 h
clinical; po, 140 mg
  AUC(0-t): 11900 ng·h/mL
  Cmax: 1770 ng/mL
clinical; po, 140 mg, Tmax (h) (median, range)
  Tmax: 1 h
clinical; po, 140 mg, t1/2 (h) (mean, SD)
  half-life: 7.2 h
clinical; po, 210 mg
  AUC(0-t): 14700 ng·h/mL
  Cmax: 1770 ng/mL
clinical; po, 210 mg, Tmax (h) (median, range)
  Tmax: 3 h
clinical; po, 210 mg, t1/2 (h) (mean, SD)
  half-life: 7.8 h
clinical; po, median Tmax values across the dose cohorts
  Tmax: 1 to 4 h
clinical; po, terminal half-lives, average
  half-life: 10 h
clinical; po, time of peak plasma concentrations
  Tmax: 2 h

Reference: paper PMC11327210, “A first-in-human phase I trial of daily oral zelenirstat, a N-myristoyltransferase inhibitor, in patients with advanced solid tumors and relapsed/refractory B-cell lymphomas” (Investigational New Drugs, 2024)
